# Where a name gives a salt, the structure may show the parent alone.
# Target: mouse SPNS2 (Mus musculus (Mouse), UniProt Q91VM4)
# Assay: S1P Transporter Assay (S1P release from whole cells expressing SPNS2)
# Assay type: cell-based
# Conditions: in vitro inhibition against SPNS2; HeLa cells expressing mouse SPNS2, S1P release into media after 18 hours; compounds as their pharmaceutical salts
# Method: Transporter assays are vectorial and therefore require measurement of the transported analyte in different compartments. The S1P transporter SPNS2 only exports S1P, which obviates measuring uptake of S1P into transporter-expressing cells. Thus, transporter activity was determined by quantifying S1P release from whole cells expressing SPNS2. SPNS2 inhibitor potency was assessed using whole cell assays. HeLa cells expressing mouse SPNS2 were used to determine inhibitor potency (IC50). Cells were plated onto 12 well plates and assayed when the cell monolayers became confluent. Cell growth media (RPMI-1640 containing 10% fetal bovine serum) was replaced with 2 mL of serum-free media (RPMI-1640) containing fatty acid free bovine serum albumin (BSA) (0.2 % w/v) and supplemented with 4-deoxypyridoxine (DOP) (1 mM), NaF (2 mM), Na3VO4 (0.2 mM) to inhibit S1P degradation. Test articles (1 × 10-9 - 1 × 10^-4 M) were assayed in duplicate or triplicate. After 18 hours, media was collected, an internal recovery standard (0.005 mL of 5 × 10^-7 M deuterated (d7) S 1P in methanol) was added, the BSA was precipitated with trichloroacetic acid and the bound S1P extracted with methanol. S1P and S1P-d7 were measured by liquid chromatography mass spectrometry. Inhibitor potency at the human SPNS2 ortholog was determined by an analogous assay using U-937 cells, which endogenously express human SPNS2.
# Sequence of mouse SPNS2 (Q91VM4 whole entry): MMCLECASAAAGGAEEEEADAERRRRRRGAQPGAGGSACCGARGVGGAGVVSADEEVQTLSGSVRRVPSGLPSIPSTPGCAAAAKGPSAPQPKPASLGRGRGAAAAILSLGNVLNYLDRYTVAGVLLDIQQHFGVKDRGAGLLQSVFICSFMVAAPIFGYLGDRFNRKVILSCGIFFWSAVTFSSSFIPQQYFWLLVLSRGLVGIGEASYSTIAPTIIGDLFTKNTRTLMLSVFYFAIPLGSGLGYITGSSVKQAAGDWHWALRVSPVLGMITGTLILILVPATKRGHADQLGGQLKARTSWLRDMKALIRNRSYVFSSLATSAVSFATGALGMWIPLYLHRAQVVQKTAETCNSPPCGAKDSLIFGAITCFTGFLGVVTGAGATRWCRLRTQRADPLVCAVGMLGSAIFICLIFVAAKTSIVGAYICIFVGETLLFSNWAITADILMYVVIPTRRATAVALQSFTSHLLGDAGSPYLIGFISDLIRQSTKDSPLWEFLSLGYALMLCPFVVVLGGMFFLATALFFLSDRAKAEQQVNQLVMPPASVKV
row,IC50 [nM],SMILES
1,> 2000,"CCCCCCCCCCc1ccc(NC(=O)O[C@H]2CCNC2)cc1 [Compound 23b, (S)-pyrrolidin-3-yl (4-decylphenyl)carbamate Hydrochloride]"
2,≤ 2000,"CCCCCCCCCCc1ccc(NC(=O)O[C@@H]2CCNC2)cc1 [Compound 23c, (R)-pyrrolidin-3-yl (4-decylphenyl)carbamate Hydrochloride]"
3,≤ 2000,"CCCCCCCCCCc1ccc(C(=O)N2CCNCC2)cc1 [Compound 26c, Decylphenyl)(piperazin-1-yl)methanone Hydrochloride]"
4,≤ 2000,"CCCCCCCCCCc1ccc(C(=O)NCCCN)cc1 [Compound 26d, N-aminopropyl)-4-decylbenzamide Hydrochloride]"
5,> 2000,"CCCCCCCCCCc1ccc(C(=O)NCCN)cc1 [Compound 26e, N-aminoethyl)-4-decylbenzamide Hydrochloride]"
6,> 2000,"CCCCCCCCCCc1ccc2nc(CCCN)[nH]c2c1 [Compound 31, 3-decyl-1H-benzo[d]imidazol-2-yl)propan-1-amine Hydrochloride]"
7,≤ 2000,"CCCCCCCCCCc1ccc(NC(=O)N[C@H]2CCNC2)cc1 [Compound 34, (S)(4-decylphenyl)-3-(pyrrolidin-3-yl)urea Hydrochloride]"
8,≤ 2000,"CCCCCCCCCCc1ccc(NC(=O)N2CCNCC2)cc1 [Compound 35, N-decylphenyl)piperazine-1-carboxamide Hydrochloride]"
9,> 2000,"CCCCCCCCCCc1ccc2oc(NCC3CCNCC3)nc2c1 [Compound 36, 5-decyl-N-(piperidin-4-ylmethyl)benzo[d]oxazol-2-amine]"
10,≤ 2000,"CCCCCCCCCCc1ccc(C(=O)NC2CCNCC2)cc1 [Compound 39, 4-decyl-N-(piperidin-4-yl)benzamide Hydrochloride]"
